Laboratory results published in patent US20240025893A1, “PYRIMIDINE-AND NITROGEN-CONTAINING BICYCLIC COMPOUND” (Asahi Kasei Pharma Corporation, priority 2020, published 2024).

Assays:
human IRAK-4 = human IRAK-4 (Homo sapiens (Human), UniProt Q9NWZ3); test: Measurement of human IRAK-4 inhibitory activity (TR-FRET, peptide substrate phosphorylation, 10 μM ATP); assay type: biochemical; conditions: 1 nM IRAK-4, 10 μM ATP, 23° C., 30 minutes; average values
Experimental: For the measurement of the activity of the human IRAK-4 (Invitrogen, Cat. PV3362), phosphorylation of the IRAK-4 peptide substrate (biotin-KKKKRFSFKKSFKC) by the enzyme in the presence of 10 μM ATP (Sigma-Aldrich, Cat. A7699) was measured by the TR-FRET method. The enzymatic reaction was performed in a reaction buffer containing 50 mM HEPES (pH 7.2), 1 mM DTT, 0.1 mM Na3VO4, 5 mM MgCl2, 1 mM MnCl2, and 0.1% bovine serum albumin. For the measurement of the IRAK-4 inhibitory activity, a test compound was added to the reaction buffer containing 1 nM IRAK-4, 0.5 μM peptide substrate, and 10 μM ATP, and the mixture was incubated at 23° C. for 30 minutes. Then, a detection solution containing an antibody labeled with europium cryptate (0.3 μg/mL, the antibody was prepared by using the IRAK-4 peptide substrate as the antigen), streptavidin-XL665 (2 μg/mL, CisBio, Cat. 610SAXLB), 50 mM HEPES (pH 7.2), 0.1% BSA, 120 mM KF, and 66.7 mM EDTA (all the concentrations of the reagents are final concentrations) was added to terminate the reaction, and then the mixture was further incubated at 23° C. for 60 minutes. Fluorescence intensity was measured at wavelengths of 665 nm and 620 nm with a microplate reader, and the enzymatic activity was calculated as the ratio of fluorescence intensities at 665 nm and 620 nm (665 nm/620 nm).

[1] = tested on: LPS-stimulated TNFα production in THP-1 cells; test: LPS-stimulated TNFα production inhibition test using human acute monocytic leukemia cell strain THP-1; assay type: cell-based; conditions: Homo sapiens, LPS 2.5 ng/mL, average values
Experimental: By the THP-1 assay, influence of a test compound on the TNFα production induced by LPS stimulation can be evaluated. The THP-1 cells (ATCC, Cat. TIB-202) were inoculated on a 96-well plate at a density of 1×10^5 cells/160 μL/well, a test compound was added in a volume of 20 μL, and the plate was incubated at 37° C. for 1 hour in a 5% CO2 incubator. Then, LPS in a volume of 20 μL (final concentration 2.5 ng/mL, Sigma, Cat. L2630) was added, and the plate was further incubated for 4 hours. After the incubation, the plate was centrifuged, and 100 μL of the supernatant was taken from each well, and used for evaluation of the amount of TNFα using HTRF (Cisbio, Cat. 62TNFPEB). In the measurement of the amount of TNFα, the supernatant was diluted twice with the medium, and then added to wells of a 384-well plate in a volume of 10 μL, then anti-TNFα-cryptate (5 μL), and anti-TNFα-XL665 (5 μL) were added, and the plate was left standing overnight. The fluorescence intensity ratio for the wavelengths of 620 and 665 nm (620 nm/665 nm) was measured with a microplate reader, and the amount of TNFα in the supernatant was calculated by using a calibration curve. The TNFα production suppression ratio observed with no addition of LPS was defined to be 100%, the TNFα production suppression ratio observed with no addition of the test compound was defined to be 0%, and IC50 of the test compound was calculated by using the 4-parameter logistic model of the data analysis software XLfit (ID Business Solutions Ltd.).

Sequence of human IRAK-4 (Q9NWZ3 whole entry): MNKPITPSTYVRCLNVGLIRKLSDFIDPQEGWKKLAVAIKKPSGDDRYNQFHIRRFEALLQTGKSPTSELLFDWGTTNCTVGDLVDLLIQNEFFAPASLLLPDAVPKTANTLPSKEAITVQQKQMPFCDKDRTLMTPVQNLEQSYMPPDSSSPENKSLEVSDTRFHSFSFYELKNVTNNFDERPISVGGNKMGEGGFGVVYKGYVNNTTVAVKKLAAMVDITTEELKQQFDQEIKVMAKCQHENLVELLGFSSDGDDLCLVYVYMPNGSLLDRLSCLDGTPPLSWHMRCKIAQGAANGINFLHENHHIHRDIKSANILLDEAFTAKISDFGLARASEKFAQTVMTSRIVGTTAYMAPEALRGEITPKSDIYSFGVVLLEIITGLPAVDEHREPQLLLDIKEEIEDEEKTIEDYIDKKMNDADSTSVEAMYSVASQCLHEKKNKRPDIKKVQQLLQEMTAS

Row | IC50 (human IRAK-4) [nM] | IC50 ([1]; THP-1, 4 h) [nM] | Structure (SMILES) | IC50 ([1]; 4 hours) [nM]
1 | 2.17 | 146 | O=C(Nc1nc2ccc(-c3cnc(CO[C@H]4CCC[C@@H]4O)nc3)cc2s1)C1CC(N2CC[C@H](OC(F)F)C2)C1 (some centres unmarked) [b-02-51] | –
2 | 2.59 | 172 | CN(CC(F)F)C1CC(C(=O)Nc2nc3ccc(-c4cnc(CO[C@H]5CCC[C@@H]5O)nc4)cc3s2)C1 (some centres unmarked) [b-02-53] | –
3 | 3.46 | 135 | O=C(Nc1nc2ccc(-c3cnc(CO[C@H]4CCC[C@@H]4O)nc3)cc2s1)C1CC(N2CCOC[C@@H]2C(F)(F)F)C1 (some centres unmarked) [b-02-54] | –
4 | 2.97 | 150 | O=C(Nc1nc2ccc(-c3cnc(CO[C@H]4CCC[C@@H]4O)nc3)cc2s1)C1CC(N2CCOC[C@H]2C(F)(F)F)C1 (some centres unmarked) [b-02-55] | –
5 | 1.76 | 109 | O=C(Nc1nc2ccc(-c3cnc(CO[C@H]4CCC[C@@H]4O)nc3)cc2s1)C1CC(NC2(C(F)F)CC2)C1 (some centres unmarked) [b-02-56] | –
6 | 2.62 | 119 | O=C(Nc1nc2ccc(-c3cnc(CO[C@H]4CCC[C@@H]4O)nc3)cc2s1)C1CC(NC2(C(F)(F)F)CC2)C1 (some centres unmarked) [b-02-57] | –
7 | 2.7 | 133 | O=C(Nc1nc2ccc(-c3cnc(CO[C@H]4CCC[C@@H]4O)nc3)cc2s1)C1CC(N[C@@H]2C[C@H]2C(F)(F)F)C1 (some centres unmarked) [b-02-58] | –
8 | 1.51 | 105 | N#CC1(NC2CC(C(=O)Nc3nc4ccc(-c5cnc(CO[C@H]6CCC[C@@H]6O)nc5)cc4s3)C2)CC1 (some centres unmarked) [b-02-59] | –
9 | 4.27 | 158 | O=C(Nc1nc2ccc(-c3cnc(CO[C@H]4CCC[C@@H]4O)nc3)cc2s1)C1CC(NC23CC(C(F)(F)F)(C2)C3)C1 (some centres unmarked) [b-02-60] | –
10 | 3.87 | 109 | O=C(Nc1nc2ccc(-c3cnc(CO[C@H]4CCC[C@@H]4O)nc3)cc2s1)C1CC(N2CCOC(C(F)(F)F)C2)C1 (some centres unmarked) [b-02-61] | –
11 | 1.38 | 141 | O=C(Nc1nc2ccc(-c3cnc(CO[C@H]4CCC[C@@H]4O)nc3)cc2s1)C1CC(N2CC[C@@H](OC(F)F)C2)C1 (some centres unmarked) [b-02-62] | –
12 | 2.39 | 159 | O=C(Nc1nc2ccc(-c3cnc(CO[C@H]4CCC[C@@H]4O)nc3)cc2s1)C1CC(N2CCOC3(CCC3)C2)C1 (some centres unmarked) [b-02-63] | –
13 | 2.38 | 163 | Cn1cc(NC2CC(C(=O)Nc3nc4ccc(-c5cnc(CO[C@H]6CCC[C@@H]6O)nc5)cc4s3)C2)cn1 (some centres unmarked) [b-02-65] | –
14 | 5 | 227 | O=C(Nc1nc2ccc(-c3cnc(CO[C@H]4CCC[C@@H]4O)nc3)cc2s1)C1CC(N2CCc3ccccc32)C1 (some centres unmarked) [b-02-66] | –
15 | 2.36 | 91 | CC(C)C[C@H]1COCCN1C1CC(C(=O)Nc2nc3ccc(-c4cnc(CO[C@H]5CCC[C@@H]5O)nc4)cc3s2)C1 (some centres unmarked) [b-02-67] | –
16 | 2.18 | 160 | O=C(Nc1nc2ccc(-c3cnc(CO[C@H]4CCC[C@@H]4O)nc3)cc2s1)C1CC(N2CCOCC2C2CC2)C1 (some centres unmarked) [b-02-68] | –
17 | 1.81 | 80 | O=C(Nc1nc2ccc(-c3cnc(CO[C@H]4CCC[C@@H]4O)nc3)cc2s1)C1CC(N2CCO[C@@H]3CCC[C@@H]32)C1 (some centres unmarked) [b-02-69] | –
18 | 2.94 | 90 | CC1(C)CN(C2CC(C(=O)Nc3nc4ccc(-c5cnc(CO[C@H]6CCC[C@@H]6O)nc5)cc4s3)C2)[C@@H]2CCC[C@H]2O1 (some centres unmarked) [b-02-70] | –
19 | 2.36 | 105 | O=C(Nc1nc2ccc(-c3cnc(CO[C@H]4CCC[C@@H]4O)nc3)cc2s1)C1CC(N2CCOCC2CC2CC2)C1 (some centres unmarked) [b-02-71] | –
20 | 1.47 | 162 | CN(CCO)C1CC(C(=O)Nc2nc3ccc(-c4cnc(CO[C@H]5CCC[C@@H]5O)nc4)cc3s2)C1 (some centres unmarked) [b-02-72] | –

Row | IC50 (human IRAK-4) [nM] | IC50 ([1]; THP-1, 4 h) [nM] | Structure (SMILES) | IC50 ([1]; 4 hours) [nM]
21 | 1.57 | 189 | O=C(Nc1nc2ccc(-c3cnc(CO[C@H]4CCC[C@@H]4O)nc3)cc2s1)C1CC(N2CCC3(CC2)COC3)C1 (some centres unmarked) [b-02-74] | –
22 | 1.55 | 99 | O=C(Nc1nc2ccc(-c3cnc(CO[C@H]4CCC[C@@H]4O)nc3)cc2s1)C1CC(NC2C3CC2C3)C1 (some centres unmarked) [b-02-76] | –
23 | 2.6 | 187 | O=C(Nc1nc2ccc(-c3cnc(CO[C@H]4CCC[C@@H]4O)nc3)cc2s1)C1CC(N2CCCCO2)C1 (some centres unmarked) [b-02-77] | –
24 | 2.29 | 111 | O=C(Nc1nc2ccc(-c3cnc(CO[C@H]4CCC[C@@H]4O)nc3)cc2s1)C1CC(NC2(C(F)(F)F)COC2)C1 (some centres unmarked) [b-02-78] | –
25 | 3.39 | 138 | O=C(Nc1nc2ccc(-c3cnc(CO[C@H]4CCC[C@@H]4O)nc3)cc2s1)C1CC(NC2(C(F)(F)F)CCC2)C1 (some centres unmarked) [b-02-79] | –
26 | 6.86 | 176 | O=C(Nc1nc2ccc(-c3cnc(CO[C@H]4CCC[C@@H]4O)nc3)cc2s1)C1CC(NC2(C(F)(F)F)CCCC2)C1 (some centres unmarked) [b-02-80] | –
27 | 3.64 | 202 | O=C(Nc1nc2ccc(-c3cnc(CO[C@H]4CCC[C@@H]4O)nc3)cc2s1)C1CC(N2CCOC3(CCCC3)C2)C1 (some centres unmarked) [b-02-81] | –
28 | 4.02 | 131 | CC1COC2(CCCC2)CN1C1CC(C(=O)Nc2nc3ccc(-c4cnc(CO[C@H]5CCC[C@@H]5O)nc4)cc3s2)C1 (some centres unmarked) [b-02-82] | –
29 | 1.93 | 149 | O=C(Nc1nc2ccc(-c3cnc(CO[C@H]4CCC[C@@H]4O)nc3)cc2s1)C1CC(N2CCCCC2)C1 (some centres unmarked) [b-02-83] | –
30 | 1.04 | 101 | C[C@@H]1CCCCN1C1CC(C(=O)Nc2nc3ccc(-c4cnc(CO[C@H]5CCC[C@@H]5O)nc4)cc3s2)C1 (some centres unmarked) [b-02-84] | –
31 | 1.88 | 127 | CC(C)[C@@H]1[C@H](O)CCCN1C1CC(C(=O)Nc2nc3ccc(-c4cnc(CO[C@H]5CCC[C@@H]5O)nc4)cc3s2)C1 (some centres unmarked) [b-02-85] | –
32 | 0.803 | 132 | O=C(Nc1nc2ccc(-c3cnc(CO[C@H]4CCC[C@@H]4O)nc3)cc2s1)C1CC(NCc2nccs2)C1 (some centres unmarked) [b-02-86] | –
33 | 0.95 | 182 | O=C(Nc1nc2ccc(-c3cnc(CO[C@H]4CCC[C@@H]4O)nc3)cc2s1)C1CC(NCc2ccsn2)C1 (some centres unmarked) [b-02-87] | –
34 | 1.3 | 71 | CN(C1CC(C(=O)Nc2nc3ccc(-c4cnc(CO[C@H]5CCC[C@@H]5O)nc4)cc3s2)C1)C12CC(C1)C2 (stereo partly drawn) [b-03-01, 3-(Bicyclo[1,1,1]pentan-1-yl(methyl)amino)-N-(6-(2-((((1S,2S)-2-hydroxycyclopentyl)oxy)methyl)pyrimidin-5-yl)benzo[d]thiazol-2-yl)cyclobutane-1-carboxamide] | –
35 | 11 | 145 | O=C(Nc1nc2ccc(-c3cnc(CO[C@H]4CCC[C@@H]4O)nc3)cc2s1)C1CC(N(CCC(F)(F)F)C23CC(C2)C3)C1 (some centres unmarked) [b-03-02] | –
36 | 1.43 | 126 | CN(C1CC1)C1CC(C(=O)Nc2nc3ccc(-c4cnc(CO[C@H]5CCC[C@@H]5O)nc4)cc3s2)C1 (some centres unmarked) [b-03-03] | –
37 | 1.67 | 117 | CN(C1CC(C(=O)Nc2nc3ccc(-c4cnc(CO[C@H]5CCC[C@@H]5O)nc4)cc3s2)C1)C12CC(C)(C1)C2 (some centres unmarked) [b-03-04] | –
38 | 2.93 | 108 | CN(C1CC(C(=O)Nc2nc3ccc(-c4cnc(CO[C@H]5CCC[C@@H]5O)nc4)cc3s2)C1)C1(C(F)F)CC1 (some centres unmarked) [b-03-05] | –
39 | 2.8 | 116 | CN(C1CC(C(=O)Nc2nc3ccc(-c4cnc(CO[C@H]5CCC[C@@H]5O)nc4)cc3s2)C1)C12CC(C#N)(C1)C2 (some centres unmarked) [b-03-06] | –

Row | Structure (SMILES) | IC50 (human IRAK-4) [nM] | IC50 ([1]; THP-1, 4 h) [nM] | IC50 ([1]; 4 hours) [nM]
40 | O=C(Nc1nc2ccc(-c3cnc(CO[C@H]4CCC[C@@H]4O)nc3)cc2s1)C1CC(NCC(F)F)C1 (some centres unmarked) [b-02-52] | 2.6 | – | 176
